Read-outs that look alike come from different tables or passages of the source.
Assays:
human PPARγ = target: T1, human PPARγ (Homo sapiens, UniProt P37231); experiment: human PPARγ nuclear reporter assay (luciferase); conditions: reporter cells incubated 24 h, luminescence
T1 sequence (P37231 1-505): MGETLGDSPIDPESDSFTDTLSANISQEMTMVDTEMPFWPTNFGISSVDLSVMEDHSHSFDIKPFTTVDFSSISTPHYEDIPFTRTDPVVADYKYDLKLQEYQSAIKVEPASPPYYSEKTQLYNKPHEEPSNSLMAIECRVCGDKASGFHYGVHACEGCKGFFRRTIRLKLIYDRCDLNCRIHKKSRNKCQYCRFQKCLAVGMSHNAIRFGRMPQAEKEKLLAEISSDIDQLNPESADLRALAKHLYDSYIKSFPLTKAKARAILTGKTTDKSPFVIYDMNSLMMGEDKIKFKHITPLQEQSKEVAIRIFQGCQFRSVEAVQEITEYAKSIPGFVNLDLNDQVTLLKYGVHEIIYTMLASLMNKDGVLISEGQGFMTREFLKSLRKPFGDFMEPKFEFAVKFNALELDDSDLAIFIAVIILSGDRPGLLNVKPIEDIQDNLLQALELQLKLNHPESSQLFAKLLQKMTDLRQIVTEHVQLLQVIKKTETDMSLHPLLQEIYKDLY
Procedure: A human PPARγ nuclear reporter assay was purchased from Indigo Biosciences Inc. (Cat. #IB00101, State College, PA, USA) and was performed according to the manufacturer’s instructions. Briefly, the reporter cells of the assays include a luciferase reporter gene functionally linked to a PPARγ-responsive promoter. Thus, quantifying changes in luciferase expression in the treated reporter cells provides a sensitive surrogate measure of the changes in PPARγ activity. […] A sigmoidal dose–response analysis was performed to determine the half-maximal effective concentration (EC50) values for each TZD (GraphPad Prism 8.4.3, San Diego, CA, USA).

[1] = plasma protein binding by equilibrium dialysis; format: in vitro ADME; set-up: fraction unbound at 4 h: dose or concentration left out as unconfirmed; conditions: 37 °C
Procedure: In vitro plasma protein binding was determined in preterm rabbit plasma (New Zealand White Pooled Gender, BIOIVT, Hicksville, NY, USA) by equilibrium dialysis using Thermo Fisher Scientific Pierce RED rapid equilibrium dialysis devices (Device Inserts 8K MWCO, Thermo Fisher Scientific, Waltham, MA, USA). The assay was performed using a Tecan Evoware robotic system (Männedorf, Switzerland). Test compounds and the positive control were diluted in the pooled plasma (three donors) to a final concentration of […] and then dispensed into the red chamber of the RED device inserts. Phosphate-Buffered Saline (PBS, from Merck KGaA, Darmstadt, Germany) was dispensed into the other side. Upon completion of 4 h of incubation (37 °C under shaking), equal aliquots were removed from each chamber and matrix matched with even volumes of plasma or buffer for LC-MS/MS analyses.
Free and Bound percentages of the compounds were calculated as follows:(1) %Free=Area buffer sample/Area plasma sample×100 (2) % Bound=100−%Free

Caco-2 cell monolayers = experiment: Caco-2 permeability assay; format: in vitro ADME
Procedure: (§1) Caco-2 cells were purchased from ReadyCell (Barcelona, Spain). The cells arrived already seeded and differentiated (21-days) in 96-well plates (CacoReady 96-well kits, ReadyCell). Cells were maintained in a cell culture medium: Dulbecco’s modified Eagle’s medium (DMEM) 1 g/L glucose containing 10% fetal bovine serum, 1% L-glutamine 200 mM, and 1% penicillin (10,000 U/mL)–streptomycin (10 mg/mL), all from Merck KGaA. The buffer used in the assay was Hanks Balanced Salt Solution (HBSS, Merck). Control compounds were: sulpiride (low permeability control), metoprolol (high permeability control), talinolol (P-glycoprotein transport (Pgp) substrate control), and GF120918 (Elacridar, Pgp inhibitor), all purchased from Merck KGaA.
(§2) The day of the experiment, the integrity of the cell monolayers was assessed before and after the assay by measuring the transepithelial electrical resistance (TEER). The permeability of the compounds across the cell monolayer was determined by measuring their transport in both directions: apical to basolateral (A → B) and basolateral to apical (B → A) in the absence and presence of Elacridar (a known P-gp inhibitor). The donor working solution was prepared by dilution of the DMSO stock of the test compound or positive control with HBSS (pH 7.4) to 10 µM. For A → B directional transport, the donor working solution (with test compound or positive control, with or without P-gp inhibitor) was added to the apical (A) and HBSS was added to the basolateral (B) compartment. For B → A directional transport, the donor working solution (with positive control or test compound […], with or without P-gp inhibitor) was added to the basolateral (B) and HBSS was added to the apical (A) compartment. The assay was performed with a Hamilton Star Lab robotic system. Samples were collected at t0 and 2 h after incubation (5% CO2, 95% relative humidity, 37 °C) for LC-MS/MS analyses.
(§3) Apparent permeability (Papp) was calculated with the following equation: (5) Papp(cm/sec)=(Vr/C0)×(1/A)×(Cr(t)/t) where Vr is the volume of the solution in the receiving compartment (mL); C0 is the initial test compound concentration in the donor compartment (expressed as area ratio); A is the membrane surface area (0.14 cm^2); Cr (t) is the measured concentration of the receiver well at time t120 (expressed as area ratio); and t is time of incubation (sec).

db/db diabetic mice = tested on: db/db diabetic mice; set-up: method as in PMID 11600232, PMID 28656106; conditions: compared with RGZ and PGZ; cited from earlier work
[2] = lung tissue binding by equilibrium dialysis; format: in vitro ADME; conditions: preterm rabbit lung homogenate, 4 h, 37 °C
Procedure: In vitro lung tissue binding was also determined by equilibrium dialysis as described above. Preterm rabbit lungs (New Zealand White, BIOIVT) were homogenized using a Precellys tissue homogenizer (Bertin instruments, Montigny-le-Bretonneux, France). Precellys lysing vials (CK28-R, Bertin instruments) were filled with lung and buffer according to the following proportion: 1 g of tissue and 5 mL of ice-cold PBS (dilution 1:6). At the end of the homogenization process, a pool of lung homogenate was prepared mixing equal amount of homogenate from three different donors. Test compounds and the positive control were diluted in the pooled lung homogenate to a final concentration of […] and then dispensed into the red chamber of the RED device inserts. PBS was dispensed into the other side. Upon completion of 4 h of incubation (37 °C under shaking), equal aliquots were removed from each chamber and matrix matched with even volumes of lung homogenate or buffer for LC-MS/MS analyses.
Free and Bound percentages of the compounds were calculated as follows:(3) %Free=Area buffer sample/Area lung homogenate sample×100 (4) % Bound=100−%Free

[3] = Caco-2 permeability assay; format: in vitro ADME; conditions: human, basolateral to apical
[4] = Caco-2 permeability assay; format: in vitro ADME; conditions: human, apical to basolateral
Procedure: as §1, §2, §3

[5] = tested on: patients with type 2 diabetes; conditions: type II diabetes patients, compared with RZG; cited from earlier work

EC50 (human PPARγ) [nM]	Plasma Protein Binding (%) ([1]; preterm rabbit plasma, 4 h)	Papp (A–B) (Caco-2 cell monolayers; apical to basolateral, 10 µM, 2 h, without Pgp inhibitor) [×10⁻⁶ cm/s]	Papp with Pgp Inhibitor (A–B) (Caco-2 cell monolayers; apical to basolateral, with Elacridar) [×10⁻⁶ cm/s]	Papp (B–A) (Caco-2 cell monolayers; basolateral to apical, 2 h, without Pgp inhibitor) [×10⁻⁶ cm/s]	Papp with Pgp Inhibitor (B–A) (Caco-2 cell monolayers; basolateral to apical, with Elacridar) [×10⁻⁶ cm/s]	Lung Tissue Binding (%) [2] [%]	Papp B→A at 2 h, 10 µM ([3]; Caco-2, pH 7.4, with Elacridar (GF120918), concentration not given, with Elacridar, read-out: Papp with Pgp Inhibitor (B–A) (converted)) [×10⁻⁶ cm/s]	Papp B→A at 2 h, 10 µM ([3]; Caco-2, pH 7.4, 2 h, without Pgp inhibitor, read-out: Papp (B–A) (converted)) [×10⁻⁶ cm/s]	fraction unbound at 4 h ([1]; both sexes, New Zealand White, preterm rabbit plasma (pooled))	Papp A→B at 2 h, 10 µM ([4]; Caco-2, pH 7.4, with Elacridar (GF120918), concentration not given, with Elacridar, read-out: Papp with Pgp Inhibitor (A–B)) [×10⁻⁶ cm/s]	Papp A→B at 2 h, 10 µM ([4]; Caco-2, pH 7.4, 10 µM, 2 h, without Pgp inhibitor, read-out: Papp (A–B)) [×10⁻⁶ cm/s]	SMILES	plasma glucose and TG reductions (db/db diabetic mice)	plasma triglycerides [5]
602	98.4 ± 0.3	22.9 ± 0.3	28.6 ± 1.5	18.7 ± 8	15.8 ± 3.4	91.8 ± 1.8						Cc1nn(CCOc2ccc(CC3SC(=O)NC3=O)cc2)c(=O)c2ccccc12 (stereo not drawn) [DRF-2546]	superior	
						95.6 ± 2.1	25.4	15.3	0.033	12.3	11.8	CCc1ccc(CCOc2ccc(CC3SC(=O)NC3=O)cc2)nc1 (stereo not drawn) [PGZ, pioglitazone]		significant reduction

Source: paper PMC9320886, “Daily Intraperitoneal Administration of Rosiglitazone Does Not Improve Lung Function or Alveolarization in Preterm Rabbits Exposed to Hyperoxia” (Pharmaceutics, 2022)
